The values that follow come from US12624018B1, “Inhibitors of RIPK2 and medical uses thereof” (Odyssey Therapeutics, Inc., priority 2022, dated 2026).

Where two headings read alike, the source gives them in different places. Some results are limits rather than exact numbers.

Usually IC50 stands for the concentration that gives 50% inhibition.

In one assay the target is T1, RIPK2 enzyme (Homo sapiens, UniProt O43353).
T1 construct: purchased Carna 09-128
Put plainly: RIPK2 inhibition (ADP-Glo Kinase Assay). The class given is biochemical. As to conditions: RIPK2 5 nM, ATP 150 μM, MBP substrate, read-out: RIPK2 IC50. A digest of the protocol:
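Human RIPK2 (5 nM) preincubated with compound 30 min at room temperature in 50 mM HEPES pH 7.5, 10 mM MgCl2, 2 mM DTT, 1 mM EGTA, 0.01% Brij-35, 0.05% BSA; native swine MBP as substrate. ADP formed quantified by ADP-Glo luminescence; percent inhibition relative to DMSO and no-enzyme controls.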
(In general: ADP-Glo first removes unused ATP, then detects ADP through luciferase.)

Another assay has as its system human NOD2 signaling. Put plainly: Inhibition of human NOD2 signaling in HEK-Blue-hNOD2 cells (L18-MDP stimulated, SEAP reporter). It is filed as cell-based. The settings on record: NOD2 ligand stimulation, SEAP reporter, read-out: hNOD2 IC50. The protocol:
Materials: Human NOD32-expressing 1TEK293 cells, HEK-Blue™-hNOD2 cells, were developed by Invivogen (catalogue number: hkb-hnod2) using co-transfection of the human NOD2 gene and an optimized secreted embryonic alkaline phosphatase (SEAP) reporter gene into HTEK293 cells. The cell maintenance medium consisted of DMEM (Giboc, 21063-029), heat inactivated FBS, penicillin (100 U/mL), streptomycin (100 μg/mL), Normocin (100 μg/mL), Blasticidin (30 μg/mL), and Zeocin (100 μg/mL). HEK-Blue™-hNOD2 cells were transferred to assay medium consisting of DMEM (Giboc, 21063-029), heat inactivated FBS, penicillin (100 U/mL) and streptomycin (100 μg/mL) prior to stimulation. Stimulation with a NOD2 ligand, L18-MDP (Invivogen, catalogue number: tlrl-lmdp) activated NF-κB and AP-1 which induced the production of SEAP. Levels of SEAP were determined with HEK-Blue™ Detection (referred to as QUANTI-Blue solution), a cell culture medium that allows for real-time detection of SEAP. QUANTI-Blue solution was prepared by adding 1 mL of QB reagent and 1 mL of QB buffer to 98 mL of sterile H2O. Test compounds were prepared into a 10 mM DMSO solution and were serially diluted into 10 points using a 3-fold dilution in a 384 well plate using a TECAN EVO200.
Method: In a 384 well plate, 40 nL of test compound was dispensed using Echo550. HEK-Blue™-hNOD2 cells (Invivogen) were prepared into a cell suspension and 40 μL of the cell suspension (12500 cells per well) was dispensed into the 384 well plate. To activate NOD2 signaling, 40 nL of L18-MDP (final concentration of 0.5 ng/mL) was added and the plate was incubated at 37° C. in a CO2 incubator for 24 hours. After the 24-hour incubation, 5 μL of the induced HEK-Blue hNOD2 cell supernatant was transferred to a new 384-well plate, centrifuged, and 45 μL of QUANTI-Blue solution was added per well and incubated for 3 hours at 37° C. SEAP levels were measured using an Ensight at 620 nm. Percent inhibition of NOD2 signaling was determined using the following equation: (high control−test compound signal)/(High control−low control)×100. The reaction high control was determined using wells with DMSO, cells, L18-MDP, and QUANTI-Blue solution. The reaction low control was determined using wells with DMSO, cells, and QUANTI-Blue solution. 4-parametric curve fit was used to determine the test compound concentration that results in 50% reduction of L18-MDP-driven human NOD2 signaling.
Using the assay described above, inhibition of hNOD2 signaling was also evaluated for GSK 2983559 (Haile at al., J. Med. Chem. 2019, 62, 14, 6482-6494), a known RIPK2 kinase inhibitor: […]

[1] abbreviates: Homo sapiens, HEK-Blue hNOD2, HEK-Blue-hNOD2 cells.

T1 sequence (O43353 1-299 limits assumed): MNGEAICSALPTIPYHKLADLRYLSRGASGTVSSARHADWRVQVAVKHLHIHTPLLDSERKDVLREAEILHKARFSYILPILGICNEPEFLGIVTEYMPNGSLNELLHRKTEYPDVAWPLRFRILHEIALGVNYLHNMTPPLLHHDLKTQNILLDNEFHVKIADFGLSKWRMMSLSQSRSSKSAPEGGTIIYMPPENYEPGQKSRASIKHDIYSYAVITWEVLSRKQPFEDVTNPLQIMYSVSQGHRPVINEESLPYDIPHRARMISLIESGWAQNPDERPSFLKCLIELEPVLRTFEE

For `Cc1c(Oc2ccnc3ccc(S(=N)(=O)C4CC4)cc23)ccc(CC(=O)Nc2cnn(C34CC(C3)C4)c2)c1F` (single isomer, unassigned) [Compound 527], the IC50 at RIPK2 enzyme was less than 2.5 nM; in the assay on human NOD2 signaling (HEK-Blue-hNOD2 cells) it was 0.7 nM.

As for `Cc1c(Oc2ccnc3ccc(S(=N)(=O)C4CC4)cc23)ccc(CC(=O)Nc2cnn(C34CC(C3)C4)c2)c1F` (single isomer, unassigned) [Compound 528, N-(1-(bicyclo[1.1.1]pentan-1-yl)-1H-pyrazol-4-yl)-2-(4-((6-(cyclopropanesul-fonimidoyl)quinolin-4-yl)oxy)-2-fluoro-3-methylphenyl) acetamide], the values for the IC50 on RIPK2 enzyme and in the assay on human NOD2 signaling (setting [1]) were less than 2.5 nM and 0.8 nM, respectively.

`N=S(=O)(c1ccc2nccc(Oc3cc(F)c(CC(=O)Nc4cnn(C56CC(C5)C6)c4)cc3Cl)c2c1)C1CC1` (single isomer, unassigned) [Compound 531, N-(1-(bicyclo[1.1.1]pentan-1-yl)-1H-pyrazol-4-yl)-2-(5-chloro-4-((6-(cyclopropanesul-fonimidoyl)quinolin-4-yl)oxy)-2-fluorophenyl) acetamide]: the IC50 on RIPK2 enzyme is less than 2.5 nM; in the assay with human NOD2 signaling (HEK-Blue-hNOD2 cells), 41.6 nM.

In the case of `N=S(=O)(c1ccc2nccc(Oc3cc(F)c(CC(=O)Nc4cnn(C56CC(C5)C6)c4)cc3Cl)c2c1)C1CC1` (single isomer, unassigned) [Compound 532, N-(1-(bicyclo[1.1.1]pentan-1-yl)-1H-pyrazol-4-yl)-2-(5-chloro-4-((6-(cyclopropanesul-fonimidoyl)quinolin-4-yl)oxy)-2-fluorophenyl) acetamide], the IC50 at RIPK2 enzyme was less than 2.5 nM; in the assay on human NOD2 signaling (HEK-Blue-hNOD2 cells), 16.9 nM.

Take `CC(C)(C)n1cc(NC(=O)Cc2cc(Cl)c(Oc3ccnc4ccc(S(=N)(=O)C5CC5)cc34)cc2F)cn1` (single isomer, unassigned) [Compound 533, N-(1-(tert-butyl)-1H-pyrazol-4-yl)-2-(5-chloro-4-((6-(cyclopropanesul-fonimidoyl)quinolin-4-yl)oxy)-2-fluorophenyl) acetamide]: the IC50 was less than 2.5 nM on RIPK2 enzyme and 10.4 nM in the assay with human NOD2 signaling (setting [1]).

As to `CC(C)(C)n1cc(NC(=O)Cc2cc(Cl)c(Oc3ccnc4ccc(S(=N)(=O)C5CC5)cc34)cc2F)cn1` (single isomer, unassigned) [Compound 534, N-(1-(tert-butyl)-1H-pyrazol-4-yl)-2-(5-chloro-4-((6-(cyclopropanesulfonimidoyl)quinolin-4-yl)oxy)-2-fluorophenyl) acetamide], the IC50 on RIPK2 enzyme is less than 2.5 nM; in the assay on human NOD2 signaling (HEK-Blue-hNOD2 cells), 6 nM.

On to `CCS(=N)(=O)c1ccc2nccc(Oc3ccc(CC(=O)Nc4cnn(C(C)(C)C)c4)c(F)c3C)c2c1` (single isomer, unassigned) [Compound 535, N-(1-(tert-butyl)-1H-pyrazol-4-yl)-2-(4-((6-(ethylsulfonimidoyl)quinolin-4-yl)oxy)-2-fluoro-3-methylphenyl) acetamide], for which the IC50 on RIPK2 enzyme is less than 2.5 nM; in the assay with human NOD2 signaling (setting [1]), 0.8 nM.

On to `CCS(=N)(=O)c1ccc2nccc(Oc3ccc(CC(=O)Nc4cnn(C(C)(C)C)c4)c(F)c3C)c2c1` (single isomer, unassigned) [Compound 536, N-(1-(tert-butyl)-1H-pyrazol-4-yl)-2-(4-((6-(ethylsulfonimi-doyl)quinolin-4-yl)oxy)-2-fluoro-3-methylphenyl) acetamide], for which the IC50 was less than 2.5 nM on RIPK2 enzyme and 0.7 nM in the assay with human NOD2 signaling (HEK-Blue-hNOD2 cells).

Take `Cc1c(Oc2ccnc3ccc(S(=N)(=O)C(C)C)cc23)ccc(CC(=O)Nc2cnn(C(C)(C)C)c2)c1F` (single isomer, unassigned) [Compound 537, N-(1-(tert-butyl)-1H-pyrazol-4-yl)-2-(2-fluoro-3-methyl-4-((6-(propan-2-ylsulfonimidoyl)quinolin-4-yl)oxy)phenyl) acetamide]: the IC50 at RIPK2 enzyme is less than 2.5 nM; in the assay on human NOD2 signaling (setting [1]), 0.4 nM.

For `Cc1c(Oc2ccnc3ccc(S(=N)(=O)C(C)C)cc23)ccc(CC(=O)Nc2cnn(C(C)(C)C)c2)c1F` (single isomer, unassigned) [Compound 538, N-(1-(tert-butyl)-1H-pyrazol-4-yl)-2-(2-fluoro-3-methyl-4-((6-(propan-2-ylsulfonimidoyl)quinolin-4-yl)oxy)phenyl) acetamide], the figures for the IC50 at RIPK2 enzyme and in the assay on human NOD2 signaling (HEK-Blue-hNOD2 cells) were less than 2.5 nM and 0.2 nM, respectively.

In the case of `Cc1c(Oc2ccnc3ccc(S(=N)(=O)C(C)(C)C)cc23)ccc(CC(=O)Nc2cnn(C(C)(C)C)c2)c1F` (single isomer, unassigned) [Compound 539, N-(1-(tert-butyl)-1H-pyrazol-4-yl)-2-(2-fluoro-3-methyl-4-((6-(2-methylpropan-2-ylsulfonimidoyl)quinolin-4-yl)oxy)phenyl) acetamide], the IC50 at RIPK2 enzyme was less than 2.5 nM; with human NOD2 signaling (HEK-Blue-hNOD2 cells), 1.2 nM.

As to `Cc1c(Oc2ccnc3ccc(S(=N)(=O)C(C)(C)C)cc23)ccc(CC(=O)Nc2cnn(C(C)(C)C)c2)c1F` (single isomer, unassigned) [Compound 540, N-(1-(tert-butyl)-1H-pyrazol-4-yl)-2-(2-fluoro-3-methyl-4-((6-(2-methylpropan-2-ylsulfonimidoyl)quinolin-4-yl)oxy)phenyl) acetamide], the results for the IC50 at RIPK2 enzyme and with human NOD2 signaling (HEK-Blue-hNOD2 cells) were less than 2.5 nM and 0.5 nM, respectively.

For the compound `Cc1c(Oc2ccnc3ccc(S(=N)(=O)C4CCC4)cc23)ccc(CC(=O)Nc2cnn(C(C)(C)C)c2)c1F` (single isomer, unassigned) [Compound 541, N-(1-(tert-butyl)-1H-pyrazol-4-yl)-2-(4-((6-(cyclobutanesulf-onimidoyl)quinolin-4-yl)oxy)-2-fluoro-3-methylphenyl) acetamide], the IC50 on RIPK2 enzyme is less than 2.5 nM; in the assay with human NOD2 signaling (setting [1]) it was 0.3 nM.

For the compound `Cc1c(Oc2ccnc3ccc(S(=N)(=O)C4CCC4)cc23)ccc(CC(=O)Nc2cnn(C(C)(C)C)c2)c1F` (single isomer, unassigned) [Compound 542, N-(1-(tert-butyl)-1H-pyrazol-4-yl)-2-(4-((6-(cyclobutanesulf-onimidoyl)quinolin-4-yl)oxy)-2-fluoro-3-methylphenyl) acetamide], the IC50 was less than 2.5 nM at RIPK2 enzyme and 0.2 nM with human NOD2 signaling (HEK-Blue-hNOD2 cells).

With `Cc1cc(CC(=O)Nc2cnn(C(C)(C)C)c2)ccc1Oc1ccnc2ccc(S(=N)(=O)C(C)(C)C)cc12` (single isomer, unassigned) [Compound 549, N-(1-(tert-butyl)-1H-pyrazol-4-yl)-2-(3-methyl-4-((6-(2-methylpropan-2-ylsulfonimidoyl)quinolin-4-yl)oxy)phenyl) acetamide], the IC50 is less than 2.5 nM at RIPK2 enzyme and 18.2 nM in the assay on human NOD2 signaling (setting [1]).

Turning to `Cc1cc(CC(=O)Nc2cnn(C(C)(C)C)c2)ccc1Oc1ccnc2ccc(S(=N)(=O)C(C)(C)C)cc12` (single isomer, unassigned) [Compound 550, N-(1-(tert-butyl)-1H-pyrazol-4-yl)-2-(3-methyl-4-((6-(2-methylpropan-2-ylsulfonimidoyl)quinolin-4-yl)oxy)phenyl) acetamide], the results for the IC50 on RIPK2 enzyme and in the assay with human NOD2 signaling (HEK-Blue-hNOD2 cells) were less than 2.5 nM and 11 nM, respectively.

For the compound `Cc1cc(CC(=O)Nc2cnn(C(C)(C)C)c2)ccc1Oc1ccnc2cc(F)c(S(=N)(=O)C3CC3)cc12` (single isomer, unassigned) [Compound 553, N-(1-(tert-butyl)-1H-pyrazol-4-yl)-2-(4-((6-(cyclopropane-sulfonimidoyl)-7-fluoroquinolin-4-yl)oxy)-3-methylphenyl) acetamide], the figures for the IC50 at RIPK2 enzyme and in the assay with human NOD2 signaling (setting [1]) were less than 2.5 nM and 5.6 nM, respectively.
